Patent publication US9527832B2, “Substituted condensed pyrimidine compounds” (GRÜNENTHAL GMBH, priority 2013, dated 2016)

Target: T1, human PDE4B1 (Homo sapiens, UniProt Q07343)
T1 construct: host or cells: Sf9 cells
Test: cAMP HTRF assay to determine the activity of hPDE4B1
Type: biochemical
Conditions: for inhibition at 1 µM: Percentage inhibition of PDE4B at 1 μM test concentration; for IC50: dose response measurements with eight concentrations, reported as ranges, read-out: IC50
How it was run: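 Sf9-expressed recombinant human PDE4B1 (4.8 U) in Tris-HCl/MgCl2/DTT/Tween 20 buffer pH 7.8, with cAMP at 40 nM final, 30 min at room temperature. Reaction stopped with IBMX 1 mM; remaining cAMP detected by HTRF (665/620 nm ratio). IC50 from eight-point dose-response, n=2.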

T1 sequence (Q07343 whole entry): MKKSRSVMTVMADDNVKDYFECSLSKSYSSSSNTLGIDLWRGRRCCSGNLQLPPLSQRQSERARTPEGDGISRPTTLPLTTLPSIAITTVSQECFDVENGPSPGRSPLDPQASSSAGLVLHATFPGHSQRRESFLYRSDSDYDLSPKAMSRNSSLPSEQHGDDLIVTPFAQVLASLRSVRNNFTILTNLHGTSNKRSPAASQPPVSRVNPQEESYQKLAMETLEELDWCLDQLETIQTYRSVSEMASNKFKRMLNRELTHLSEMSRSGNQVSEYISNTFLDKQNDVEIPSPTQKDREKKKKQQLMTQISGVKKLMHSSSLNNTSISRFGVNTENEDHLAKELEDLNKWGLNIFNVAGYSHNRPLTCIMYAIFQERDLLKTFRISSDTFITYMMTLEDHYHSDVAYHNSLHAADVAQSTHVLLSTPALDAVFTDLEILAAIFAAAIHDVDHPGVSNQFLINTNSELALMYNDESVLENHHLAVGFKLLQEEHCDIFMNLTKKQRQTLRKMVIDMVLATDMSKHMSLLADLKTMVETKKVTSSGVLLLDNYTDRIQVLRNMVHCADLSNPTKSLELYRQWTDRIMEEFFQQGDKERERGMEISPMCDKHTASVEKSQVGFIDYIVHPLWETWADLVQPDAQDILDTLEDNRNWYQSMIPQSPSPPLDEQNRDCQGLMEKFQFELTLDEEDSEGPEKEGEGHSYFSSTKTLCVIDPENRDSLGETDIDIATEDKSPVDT

| Compound | inhibition at 1 µM | IC50 |
| --- | --- | --- |
| COC(=O)COc1ccc2c(c1)N(c1nc(-c3ccc(Cl)s3)nc3c1CS(=O)(=O)C3)CC2 [Compound No. 1-77, Methyl 2-((1-(2-(5-chlorothiophen-2-yl)-6,6-dioxido-5,7-dihydrothieno[3,4-d]pyrimidin-4-yl)indolin-6-yl)oxy)acetate] | 62% | 100 to 1000 nM |
| COC(=O)Cc1ccc2c(c1)CCN2c1nc(-c2ccc(Cl)s2)nc2c1CS(=O)(=O)C2 [Compound No. 1-78, Methyl 2-(1-(2-(5-chlorothiophen-2-yl)-6,6-dioxido-5,7-dihydrothieno[3,4-d]pyrimidin-4-yl)indolin-5-yl)acetate] | 25% | – |
| COC(=O)COc1ccc2c(c1)N(c1nc(-c3ccc(Cl)s3)nc3c1CCC3)CC2 [Compound No. 1-79, Methyl 2-((1-(2-(5-chlorothiophen-2-yl)-6,7-dihydro-5H-cyclopenta[d]pyrimidin-4-yl)indolin-6-yl)oxy)acetate] | 88% | 100 to 1000 nM |
| O=C(O)Cc1ccc2c(c1)CCN2c1nc(-c2cc3ccccc3s2)nc2c1C[S+]([O-])C2 (centres unmarked) [Compound No. 1-80, 2-(1-(2-(Benzo[b]thiophen-2-yl)-6-oxido-5,7-dihydrothieno[3,4-d]pyrimidin-4-yl)indolin-5-yl)acetic acid] | 108% | < 100 nM |
| O=C(O)Cc1ccc2c(c1)CCN2c1nc(-c2ccc3occc3c2)nc2c1C[S+]([O-])C2 (centres unmarked) [Compound No. 1-81, 2-(1-(2-(Benzofuran-5-yl)-6-oxido-5,7-dihydrothieno[3,4-d]pyrimidin-4-yl)indolin-5-yl)acetic acid] | 106% | < 100 nM |
| COc1ccc(-c2nc3c(c(N4CCc5ccc(OCC(=O)N(C)C)cc54)n2)CS(=O)(=O)C3)cc1 [Compound No. 2-21, 2-((1-(2-(4-Methoxyphenyl)-6,6-dioxido-5,7-dihydrothieno[3,4-d]pyrimidin-4-yl)indolin-6-yl)oxy)-N,N-dimethylacetamide] | 88% | < 100 nM |
| COc1ccc(-c2nc3c(c(N4CCc5ccc(OCC(=O)N(C)C)cc54)n2)CS(=O)(=O)C3)cc1Cl [Compound No. 2-33, 2-((1-(2-(3-Chloro-4-methoxyphenyl)-6,6-dioxido-5,7-dihydrothieno[3,4-d]pyrimidin-4-yl)indolin-6-yl)oxy)-N,N-dimethylacetamide] | 100% | < 100 nM |
| COc1ccc(-c2nc3c(c(N4CCc5ccc(OCC(=O)N(C)C)cc54)n2)C[S+]([O-])C3)cc1F (centres unmarked) [Compound No. 2-36, 2-((1-(2-(3-Fluoro-4-methoxyphenyl)-6-oxido-5,7-dihydrothieno[3,4-d]pyrimidin-4-yl)indolin-6-yl)oxy)-N,N-dimethylacetamide] | 98% | < 100 nM |
| COc1ccc(-c2nc3c(c(N4CCc5ccc(OCC(=O)N(C)C)cc54)n2)CS(=O)(=O)C3)cc1F [Compound No. 2-37, 2-((1-(2-(3-Fluoro-4-methoxyphenyl)-6,6-dioxido-5,7-dihydrothieno[3,4-d]pyrimidin-4-yl)indolin-6-yl)oxy)-N,N-dimethylacetamide] | 96% | < 100 nM |
| CN(C)C(=O)COc1ccc2c(c1)N(c1nc(-c3ccc(F)c(F)c3)nc3c1C[S+]([O-])C3)CC2 (centres unmarked) [Compound No. 2-40, 2-((1-(2-(3,4-Difluorophenyl)-6-oxido-5,7-dihydrothieno[3,4-d]pyrimidin-4-yl)indolin-6-yl)oxy)-N,N-dimethylacetamide] | 119% | < 100 nM |
| CN(C)C(=O)COc1ccc2c(c1)N(c1nc(-c3ccc(F)c(F)c3)nc3c1CS(=O)(=O)C3)CC2 [Compound No. 2-41, 2-((1-(2-(3,4-Difluorophenyl)-6,6-dioxido-5,7-dihydrothieno[3,4-d]pyrimidin-4-yl)indolin-6-yl)oxy)-N,N-dimethylacetamide] | 85% | < 100 nM |
| CN(C)C(=O)COc1ccc2c(c1)N(c1nc(-c3ccc(Cl)s3)nc3c1CCC3)CC2 [Compound No. 2-42, 2-((1-(2-(5-Chlorothiophen-2-yl)-6,7-dihydro-5H-cyclopenta[d]pyrimidin-4-yl)indolin-6-yl)oxy)-N,N-dimethylacetamide] | 79% | < 100 nM |
| CN(C)C(=O)COc1ccc2c(c1)N(c1nc(-c3ccc(Cl)s3)nc3c1CS(=O)(=O)C3)CC2 [Compound No. 2-45, 2-((1-(2-(5-Chlorothiophen-2-yl)-6,6-dioxido-5,7-dihydrothieno[3,4-d]pyrimidin-4-yl)indolin-6-yl)oxy)-N,N-dimethylacetamide] | 105% | < 100 nM |
| CN(C)C(=O)COc1ccc2c(c1)N(c1nc(-c3ccc(F)s3)nc3c1CCC3)CC2 [Compound No. 2-46, 2-((1-(2-(5-Fluorothiophen-2-yl)-6,7-dihydro-5H-cyclopenta[d]pyrimidin-4-yl)indolin-6-yl)oxy)-N,N-dimethylacetamide] | 94% | < 100 nM |
| CN(C)C(=O)COc1ccc2c(c1)N(c1nc(-c3ccc(F)s3)nc3c1CS(=O)(=O)C3)CC2 [Compound No. 2-49, 2-((1-(2-(5-Fluorothiophen-2-yl)-6,6-dioxido-5,7-dihydrothieno[3,4-d]pyrimidin-4-yl)indolin-6-yl)oxy)-N,N-dimethylacetamide] | 127% | < 100 nM |
| CC(C)NC(=O)COc1ccc2c(c1)N(c1nc(-c3ccc(Cl)s3)nc3c1CS(=O)(=O)C3)CC2 [Compound No. 2-54, 2-((1-(2-(5-Chlorothiophen-2-yl)-6,6-dioxido-5,7-dihydrothieno[3,4-d]pyrimidin-4-yl)indolin-6-yl)oxy)-N-isopropylacetamide] | 54% | 100 to 1000 nM |
| CCNC(=O)COc1ccc2c(c1)N(c1nc(-c3ccc(Cl)s3)nc3c1CS(=O)(=O)C3)CC2 [Compound No. 2-55, 2-((1-(2-(5-Chlorothiophen-2-yl)-6,6-dioxido-5,7-dihydrothieno[3,4-d]pyrimidin-4-yl)indolin-6-yl)oxy)-N-ethylacetamide] | 52% | – |
| CN(C(=O)COc1ccc2c(c1)N(c1nc(-c3ccc(Cl)s3)nc3c1CS(=O)(=O)C3)CC2)C1CC1 [Compound No. 2-56, 2-((1-(2-(5-Chlorothiophen-2-yl)-6,6-dioxido-5,7-dihydrothieno[3,4-d]pyrimidin-4-yl)indolin-6-yl)oxy)-N-cyclopropyl-N-methylacetamide] | 68% | 100 to 1000 nM |
| CN(CC1CC1)C(=O)COc1ccc2c(c1)N(c1nc(-c3ccc(Cl)s3)nc3c1CS(=O)(=O)C3)CC2 [Compound No. 2-57, 2-((1-(2-(5-Chlorothiophen-2-yl)-6,6-dioxido-5,7-dihydrothieno[3,4-d]pyrimidin-4-yl)indolin-6-yl)oxy)-N-(cyclopropylmethyl)-N-methylacetamide] | 89% | < 100 nM |
| CNC(=O)COc1ccc2c(c1)N(c1nc(-c3ccc(Cl)s3)nc3c1CS(=O)(=O)C3)CC2 [Compound No. 2-58, 2-((1-(2-(5-Chlorothiophen-2-yl)-6,6-dioxido-5,7-dihydrothieno[3,4-d]pyrimidin-4-yl)indolin-6-yl)oxy)-N-methylacetamide] | 70% | 100 to 1000 nM |
| NC(=O)COc1ccc2c(c1)N(c1nc(-c3ccc(Cl)s3)nc3c1CS(=O)(=O)C3)CC2 [Compound No. 2-59, 2-((1-(2-(5-Chlorothiophen-2-yl)-6,6-dioxido-5,7-dihydrothieno[3,4-d]pyrimidin-4-yl)indolin-6-yl)oxy)acetamide] | 76% | 100 to 1000 nM |
| O=C(COc1ccc2c(c1)N(c1nc(-c3ccc(Cl)s3)nc3c1CS(=O)(=O)C3)CC2)NC1COC1 [Compound No. 2-60, 2-((1-(2-(5-Chlorothiophen-2-yl)-6,6-dioxido-5,7-dihydrothieno[3,4-d]pyrimidin-4-yl)indolin-6-yl)oxy)-N-(oxetan-3-yl)acetamide] | 75% | 100 to 1000 nM |
| O=C(COc1ccc2c(c1)N(c1nc(-c3ccc(Cl)s3)nc3c1CS(=O)(=O)C3)CC2)NC1CC1 [Compound No. 2-61, 2-((1-(2-(5-Chlorothiophen-2-yl)-6,6-dioxido-5,7-dihydrothieno[3,4-d]pyrimidin-4-yl)indolin-6-yl)oxy)-N-cyclopropylacetamide] | 60% | < 100 nM |
| CN(C(=O)COc1ccc2c(c1)N(c1nc(-c3ccc(Cl)s3)nc3c1CCC3)CC2)C1CC1 [Compound No. 2-64, 2-((1-(2-(5-Chlorothiophen-2-yl)-6,7-dihydro-5H-cyclopenta[d]pyrimidin-4-yl)indolin-6-yl)oxy)-N-cyclopropyl-N-methylacetamide] | 65% | 100 to 1000 nM |
| O=C(COc1ccc2c(c1)N(c1nc(-c3ccc(Cl)s3)nc3c1CCC3)CC2)NC1COC1 [Compound No. 2-65, 2-((1-(2-(5-Chlorothiophen-2-yl)-6,7-dihydro-5H-cyclopenta[d]pyrimidin-4-yl)indolin-6-yl)oxy)-N-(oxetan-3-yl)acetamide] | 5% | – |
| CC(C)NC(=O)COc1ccc2c(c1)N(c1nc(-c3ccc(Cl)s3)nc3c1CCC3)CC2 [Compound No. 2-66, 2-((1-(2-(5-Chlorothiophen-2-yl)-6,7-dihydro-5H-cyclopenta[d]pyrimidin-4-yl)indolin-6-yl)oxy)-N-isopropylacetamide] | 32% | – |
| CN(CC1CC1)C(=O)COc1ccc2c(c1)N(c1nc(-c3ccc(Cl)s3)nc3c1CCC3)CC2 [Compound No. 2-67, 2-((1-(2-(5-Chlorothiophen-2-yl)-6,7-dihydro-5H-cyclopenta[d]pyrimidin-4-yl)indolin-6-yl)oxy)-N-(cyclopropylmethyl)-N-methylacetamide] | 6% | – |
| CCNC(=O)COc1ccc2c(c1)N(c1nc(-c3ccc(Cl)s3)nc3c1CCC3)CC2 [Compound No. 2-68, 2-((1-(2-(5-Chlorothiophen-2-yl)-6,7-dihydro-5H-cyclopenta[d]pyrimidin-4-yl)indolin-6-yl)oxy)-N-ethylacetamide] | 2% | – |
